# Measured values published in patent US20230286995A1, “METABOLICALLY STABLE PYRIMIDINYL DIHYDROQUINOXALINONES AS TUBULIN POLYMERIZATION INHIBITORS” (UNIVERSITY OF TENNESSEE RESEARCH FOUNDATION, priority 2022, published 2023).
# Like-named read-outs stand apart in the source and are kept apart here.
# How the values were obtained:
# [1] = tested on: PC-3/TxR xenograft tumors; test: Subcutaneous PC-3/TxR xenograft model; assay type: in vivo
# PC3 = test: Cytotoxicity assay (MTS, 72 h); assay type: cell-based; details: Homo sapiens, PC-3; Table 6; read-out: IC50 (nM) Prostate cancer PC3
# From the text: (§1) Cytotoxicity Assay. […] Each experiment consisted of four replicates.
# A-253 and Detroit 562 [2] = test: Western blot of apoptosis markers, head and neck cancer; assay type: cell-based, human; details: 100 nM, 72 hours
# From the text: FIG. 42A illustrates that compound 12k induces apoptosis in the A-253 cell line. FIG. 42B illustrates that compound 12k induces apoptosis in the Detroit 562 cell line.
# A375 = test: Cytotoxicity assay (MTS, 72 h); details: Homo sapiens, A-375, read-out: IC50 (nM) Melanoma Cancer A375, Table 6;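 further: compounds tested from 0.1 nM up to 3 µM in four replicate wells, with absorbance read at 490 nm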
# PC3/TxR = test: Cytotoxicity assay (MTS, 72 h); assay type: cell-based; details: Homo sapiens, Table 6, paclitaxel-resistant, read-out: IC50 (nM) Prostate cancer PC3/TxR
# Method: Biology. Cell culture and Reagents. […] MIA Paca-2 pancreatic cancer cells were cultured in media also supplemented with 2.5% horse serum. PANC-1 and PC-3 were cultured in RPMI 1640 medium (Gibco, Carlsbad, Calif.) supplemented with 10% FBS and 1% antibiotic/antimycotic mixture. […] For biological experiments, pyrimidine dihydroquinoxalinone derivatives were dissolved in DMSO to create 20 mM stock solutions and stored at −20° C. until use.
# as §1
# in vitro [3] = details: human, liver microsomes
# in vitro [4] = details: mouse, liver microsomes
# PANC-1 [5] = test: Cytotoxicity assay (MTS, 72 h); assay type: cell-based; details: Homo sapiens
# Method: Mia PaCa-2 and PANC-1 cells were seeded in 96-well plates at 4000 and 5000 cells per well, respectively.
# as §1
# [6] = Pharmacokinetic evaluation of 12k in mice; assay type: in vivo, NSG mice; details: female, mouse, plasma; for half-life: NSG
# Method: Female NSG mice at 7 to 9 weeks of age were used in pharmacokinetic studies. Mice received a single dose of 4 mg/kg 12k intravenously (50% PEG300:50% saline) or 10 mg/kg orally (90% PEG300:10% saline). Blood of animals (n=3) was collected in heparinized tubes via terminal intracardiac blood collection at predefined time points (0.08, 0.25, 0.5, 1, 3, 6, 12, 24 h) and plasma was immediately separated by centrifugation (10,000 rpm for 10 min at 4° C.) and stored at −80° C. until analysis.
# Mia PaCa-2 [7] = test: Cytotoxicity assay (MTS, 72 h); assay type: cell-based; details: Homo sapiens
# A-253 and Detroit 562 [8] = test: Cytotoxicity in head and neck cancer cell lines; assay type: cell-based; details: Homo sapiens; FIG. 39A; read-out: IC50 values, range over A-253 and Detroit 562
# Method: A panel of dihydroquinoxalinones were tested in two head and neck cancer cell lines, A-253 and Detroit 562. A-253 cells are a human salivary epidermoid carcinoma cell line, whereas Detroit 562 is a head and neck squamous cell carcinoma (HNSCC). Oral cancer is the most common type of head and neck cancer and more than 90% of oral cancers are either oral or oropharyngeal squamous cell carcinoma (SCC). A major clinical dilemma is chemotherapy efficiency targeted for head and neck squamous cell carcinoma (HNSCC). The inability to successfully complete cancer treatment utilizing a standard surgical approach due to an advanced stage of HNSCC and/or resistance of SCC cells to conventional chemotherapy and/or radiotherapy leads to a continuous search for new compounds with cytostatic activity and minor side effects.
# FIGS. 39B and 39C illustrate the graphical representation of the data. […] For example, at treatment levels as low of 0.5 nM, 12k was able to prevent head and neck cancer cell proliferation almost completely, whereas it required 5 nM of 17ya to achieve similar antiproliferation.
# in vivo = details: male, NSG, mouse, brain/plasma, iv, 4 mg/kg
# M14 = test: Cytotoxicity assay (MTS, 72 h); details: Homo sapiens, M14, read-out: IC50 (nM) Melanoma Cancer M14
# MDA-MB-453 = test: Cytotoxicity assay (MTS, 72 h); assay type: cell-based, human; details: Homo sapiens, MDA-MB-453; Table 6; read-out: IC50 (nM) Breast Cancer MDA-MB-453
# A-253 cells = test: Colony formation, head and neck cancer; assay type: cell-based, human
# Method: (§2) FIG. 41A illustrates the effect of compound 12k on colony formation in the A-253 cell line. FIG. 41B illustrates the effect of compound 12k on colony formation in the Detroit 562 cell line. Colony formation experiments were performed as described elsewhere herein.
# Detroit 562 cells = test: Colony formation, head and neck cancer; assay type: cell-based, human
# Method: as §2
# A-253 and Detroit 562 [9] = test: Head and neck cancer cell proliferation (confluence %)
# MDA-MB-231 = test: Cytotoxicity assay (MTS, 72 h); assay type: cell-based; details: Homo sapiens
# A375/TxR xenografts = test: In vivo A375/TxR melanoma xenograft model; design: species or system NSG mice
# [10] = target: T1, tubulin protein from bovine brain (Bos taurus, UniProt P81947+Q6B856); test: Tubulin polymerization assay (FIG. 5A); assay type: biochemical; details: 10 μM, cell-free
# T1 construct: tubulin protein from bovine brain origin; purchased Cytoskeleton, Denver, Colo; host or cells: bovine brain
# Method: Tubulin polymerization reaction was initiated by adding 100 μL of tubulin protein from bovine brain origin (3 mg/ml, Cytoskeleton, Denver, Colo.) into 10 μM of test compounds in general tubulin buffer (80 mM PIPES, 2.0 mM MgCl2, 0.5 mM EGTA, and 1 mM GTP) according to the manufacturer protocol. The reaction kinetics were recorded in every thirty seconds for 1 h at 37° C. and a microplate reader equipped with absorbance settings at 340 nm wavelength was used for this purpose. The experiment was performed in duplicates.
# Mia PaCa-2 [11] = test: Colony formation assay (PDAC); assay type: cell-based, human; details: tested 1, 2.5, 5 nM
# Method: Cells were seeded at 1000 cells per well in 6-well plates in triplicates and treated with vehicle control or 1-5 nmol/L test compounds for 11 to 14 days. The colonies were fixed with 100% methanol and stained with 0.5% crystal violet. Colony area was quantified with Image J software.
# PANC-1 [12] = test: Colony formation assay (PDAC); assay type: cell-based, human; details: tested 1, 2.5, 5 nM
# Mia PaCa-2 cells = test: Scratch migration assay (PDAC); assay type: cell-based, human; details: 5m 2 nM, PTX 4 nM, 48 h; listed as PTX
# Method: The Mia PaCa-2 cells (25,000 cells/well) were seeded in 96-well plates and allowed to adhere overnight. At 80-90% confluence, scratch was made with a wound maker. After washing off the debris, medium was replaced and tested compounds were added. Cells were live monitored with IncuCyte and pictures obtained every 2 h. Compared with the control, the wound width of cells under different treatment conditions was quantified according to the endpoint width over starting point.
# MDA-MB-231/VxR = test: Cytotoxicity assay (MTS, 72 h); assay type: cell-based; details: Homo sapiens, MDA-MB-231, read-out: IC50 ± SEM (nM) MDA-MB-231/VXR
# [13] = tested on: A2780/TxR ovarian cancer xenografts; test: Orthotopic A2780/TxR ovarian cancer xenograft model; details: paclitaxel 5 mg/kg IV
# porcine brain tubulin = target: T2, porcine brain tubulin (Sus scrofa, UniProt P02550+P02554); test: Tubulin polymerization inhibitory assay (FIG. 29A); assay type: biochemical; details: 10 μM, 37° C.; DMSO control 0.3
# T2 construct: tubulin mixture containing porcine brain tubulin (3 mg/mL); purchased Cytoskeleton, Inc. T-238P; host or cells: porcine brain
# Method: Tubulin polymerization inhibitory assay: In vitro tubulin polymerization assay was carried out according to the manufacturers' instructions (Cytoskeleton). Briefly, 10 μM of 5v was added into tubulin protein (3 mg/mL, purity>99%), and the mixture was transferred into a microplate reader and incubated at 37° C. […] Colchicine and paclitaxel were used as positive controls. […] The assay was carried out in duplicate.
# MDA-MB-231/TxR = test: Cytotoxicity assay (MTS, 72 h); assay type: cell-based; details: Homo sapiens, read-out: IC50 ± SEM (nM) MDA-MB-231/TxR, Table 2, paclitaxel-resistant
# A549/TxR = test: cells; details: Homo sapiens, read-out: IC50 ± SEM (nM) A549/TxR
# [14] = intravenous (4 mg/kg), NSG mice
# T1 sequence (P81947 whole entry): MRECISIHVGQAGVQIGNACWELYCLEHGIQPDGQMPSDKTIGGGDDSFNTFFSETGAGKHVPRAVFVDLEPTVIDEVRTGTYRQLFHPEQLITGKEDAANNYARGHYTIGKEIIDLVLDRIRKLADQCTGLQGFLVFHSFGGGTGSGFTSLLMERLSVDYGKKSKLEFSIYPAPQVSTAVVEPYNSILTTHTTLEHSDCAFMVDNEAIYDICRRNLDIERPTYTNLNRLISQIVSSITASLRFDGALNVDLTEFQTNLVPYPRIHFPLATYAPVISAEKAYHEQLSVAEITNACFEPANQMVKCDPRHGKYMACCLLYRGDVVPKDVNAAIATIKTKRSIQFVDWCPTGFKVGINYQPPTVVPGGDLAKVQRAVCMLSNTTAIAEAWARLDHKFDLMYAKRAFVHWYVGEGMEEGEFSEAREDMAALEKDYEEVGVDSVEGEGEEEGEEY
# T1 sequence (Q6B856 whole entry): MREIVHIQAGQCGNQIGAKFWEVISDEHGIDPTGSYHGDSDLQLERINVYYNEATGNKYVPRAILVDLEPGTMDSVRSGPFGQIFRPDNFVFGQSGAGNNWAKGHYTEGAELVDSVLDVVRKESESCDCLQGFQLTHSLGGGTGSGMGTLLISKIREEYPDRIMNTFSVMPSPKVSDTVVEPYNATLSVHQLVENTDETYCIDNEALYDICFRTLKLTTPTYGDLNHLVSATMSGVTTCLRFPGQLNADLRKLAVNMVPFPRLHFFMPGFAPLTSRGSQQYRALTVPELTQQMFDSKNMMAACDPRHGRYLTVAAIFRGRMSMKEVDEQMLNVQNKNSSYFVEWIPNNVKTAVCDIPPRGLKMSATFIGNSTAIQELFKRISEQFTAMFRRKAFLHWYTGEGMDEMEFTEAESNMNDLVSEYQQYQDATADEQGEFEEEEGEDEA
# T2 sequence (P02550 whole entry): as the sequence (P81947 whole entry) above, with L136S, S232G, I265A, S340T, Q358E counted along it
# T2 sequence (P02554 whole entry): as the sequence (Q6B856 whole entry) above, with T55A, M170V, S296A, I316V, E440G, G441E counted along it
smiles,measurement,setting,value
"CNc1nc2c(c(N3CC(=O)Nc4cc(OC)ccc43)n1)CCC2 [Compound 12k, 7-methoxy-4-(2-(methylamino)-6,7-dihydro-5H-cyclopenta[d]pyrimidin-4-yl)-3,4-dihydroquinoxalin-2(1H)-one]",inhibition of tumor growth in volume (ex vivo) vs control,"[1]; 2.5 mg/kg i.v., 2 doses/week",approximately 85.6%
same,reduction of tumor weight vs control,"[1]; 2.5 mg/kg i.v., 2 doses/week",84.5%
same,tolerability / body weight,[1]; 2.5 mg/kg twice per week,well tolerated
same,IC50,PC3,0.5 ± 0.1 nM
same,apoptotic markers c-PARP and c-cas 3,A-253 and Detroit 562 [2],elevated levels of apoptotic markers
same,IC50,A375,1.2 ± 0.2 nM
same,IC50,PC3/TxR,0.2 nM
same,half-life at 1 μg/mL,in vitro [3],> 5 h
same,microsomal CLint at 1 μg/mL,in vitro [3],< 2.31 µL/min/mg
same,half-life at 1 μg/mL,in vitro [4],> 5 h
same,microsomal CLint at 1 μg/mL,in vitro [4],< 2.31 µL/min/mg
same,IC50,"PANC-1 [5]; Table 6, read-out: IC50 (nM) Pancreatic cancer PANC-1",2.8 ± 0.5 nM
same,half-life,"[6]; intravenous, 4 mg/kg, text b345, read-out: in vivo half-life",3.97 h
same,half-life,"[6]; iv, 4 mg/kg, intravenous (4 mg/kg), NSG mice, read-out: t1/2 (converted)",3.97 h
same,half-life,"[6]; po, 10 mg/kg, oral (10 mg/kg), NSG mice, read-out: t1/2 (converted)",5.97 h
same,AUC,[6]; [14],2890 ng·h/mL
same,Cmax,[6]; [14],1250 ng/mL
same,Tmax,[6]; [14],0.0833 h
same,AUC,"[6]; oral (10 mg/kg), NSG mice",136 ng·h/mL
same,Cmax,"[6]; oral (10 mg/kg), NSG mice",78.3 ng/mL
same,Tmax,"[6]; oral (10 mg/kg), NSG mice",0.167 h
same,bioavailability,"[6]; oral (10 mg/kg), NSG mice",2.02%
same,IC50,"Mia PaCa-2 [7]; Table 6, read-out: IC50 (nM) Pancreatic cancer Mia PaCa-2",2.9 ± 0.5 nM
same,IC50,A-253 and Detroit 562 [8],0.52 to 3.2 nM
same,Kp at 1 h,in vivo,0.45
same,IC50,M14,0.7 ± 0.1 nM
same,IC50,MDA-MB-453,0.9 ± 0.2 nM
same,concentration with near complete inhibition of colony formation,A-253 cells,1 nM
same,concentration with near complete inhibition of colony formation,Detroit 562 cells,2 nM
same,potency of 12k relative to compound 17ya,A-253 and Detroit 562 [9]; A-253 and Detroit 562,~10 fold
same,treatment level preventing cell proliferation almost completely,A-253 and Detroit 562 [9]; confluence over 62 h,0.5 nM
same,IC50,"MDA-MB-231; MDA-MB-231, read-out: IC50 (nM) Breast Cancer MDA-MB-231, Table 6",2.2 ± 1.5 nM
"CC(=O)O[C@H]1C(=O)[C@@]2(C)[C@H]([C@H](OC(=O)c3ccccc3)[C@]3(O)C[C@H](OC(=O)[C@H](O)[C@@H](NC(=O)c4ccccc4)c4ccccc4)C(C)=C1C3(C)C)[C@]1(OC(C)=O)CO[C@@H]1C[C@@H]2O [Paclitaxel, reference compound]",tumor weight reduction,"[1]; paclitaxel 10 mg/kg, 1 dose/week",insignificant tumor weight reduction
same,spontaneous lung metastasis,A375/TxR xenografts; H&E and anti-human mitochondria IHC,no effect on the lung spontaneous metastasis
same,tumor-suppressive effect,A375/TxR xenografts; paclitaxel 4 mg/kg IV twice a week,no significant tumor-suppressive effect
same,effect on tumor growth,"A375/TxR xenografts; paclitaxel 10 mg/kg IV, 2 times per week",ineffective
same,effect on microtubule polymerization,[10],polymerization enhancement
same,dose at which colony formation was completely inhibited,Mia PaCa-2 [11],5 nM
same,dose with nearly complete inhibition of colony formation,PANC-1 [12],5 nM
same,IC50,"PANC-1 [5]; Example 7, FIG. 20, read-out: calculated IC50, PANC-1 cells",1.1 nM
same,IC50,"Mia PaCa-2 [7]; Example 7, FIG. 20, read-out: calculated IC50, Mia PaCa-2 cells",2.5 nM
same,cell migration / wound healing,Mia PaCa-2 cells,inhibited cell migration over 48 hours
same,IC50,MDA-MB-231/VxR,3.4 ± 0.5 nM
same,effect on A2780/TxR model,[13],limited effect
same,A340 at which tubulin assembly stabilized,porcine brain tubulin,approximately 0.4
same,IC50,MDA-MB-231/TxR,> 50 nM
same,IC50,"MDA-MB-231; MDA-MB-231, read-out: IC50 ± SEM (nM) MDA-MB-231, Table 2",2.3 ± 0.4 nM
same,IC50,A549/TxR,> 1000 nM
